In data set [1] the target is T1, σ1 receptor (Cavia porcellus, UniProt Q60492). Nature of the data set: biochemical.
Data set [2] addresses PCP binding site of the NMDA receptor. Nature of the data set: PCP binding site assay, radioligand [3H](+)-MK-801, pig brain preparations. The settings on record: n = 3, values without SEM mean of two experiments.
The target in another data set is T2, σ2 receptor (Rattus norvegicus, UniProt Q5U3Y7).
T2 sequence (Q5U3Y7 1-176): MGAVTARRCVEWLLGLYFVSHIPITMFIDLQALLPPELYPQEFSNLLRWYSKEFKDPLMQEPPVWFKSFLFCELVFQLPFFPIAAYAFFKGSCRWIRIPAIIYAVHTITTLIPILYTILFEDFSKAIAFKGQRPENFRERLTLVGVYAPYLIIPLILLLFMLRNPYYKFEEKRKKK
In words: biochemical. The data set is classed as binding. The following applies: read-out: Ki ± SEM σ2.

For data set [3], the target named is T3, ifenprodil binding site of NMDA receptors with GluN2B subunit (Homo sapiens, UniProt Q05586+Q13224).
T3 construct: expressed in transfected cells; host or cells: mouse L(tk-) cells, stably transfected, expression induced with dexamethasone; membrane homogenate
In words: biochemical.

A short description of a further data set: physchem. The settings on record: pH 7.4.
For data set [4] the following is noted: after 90 min incubation with mouse liver microsomes and NADPH.
The target in a further data set is κ-opioid receptor (Cavia porcellus, UniProt P41144). In words: κ-opioid receptor binding study. The settings on record: read-out: inhibition of the radioligand binding, κ receptor.
The target of data set [5] is T1, σ1 receptor.
The target in data set [6] is T1, σ1 receptor. The settings on record: earlier study; cited from earlier work.
For another data set, the target named is µ-opioid receptor (Cavia porcellus, UniProt A0ACM8Q262). Nature of the data set: µ-opioid receptor binding study. The following applies: read-out: inhibition of the radioligand binding, µ receptor.

“And” between values parts separate entries of the source, which are not always exact repeats. Equal entries are not always repeated. Where two headings read alike, the source gives them in different places. Bounds are passed on as bounds.

T3 sequence (Q13224 27-1484, other chains not shown): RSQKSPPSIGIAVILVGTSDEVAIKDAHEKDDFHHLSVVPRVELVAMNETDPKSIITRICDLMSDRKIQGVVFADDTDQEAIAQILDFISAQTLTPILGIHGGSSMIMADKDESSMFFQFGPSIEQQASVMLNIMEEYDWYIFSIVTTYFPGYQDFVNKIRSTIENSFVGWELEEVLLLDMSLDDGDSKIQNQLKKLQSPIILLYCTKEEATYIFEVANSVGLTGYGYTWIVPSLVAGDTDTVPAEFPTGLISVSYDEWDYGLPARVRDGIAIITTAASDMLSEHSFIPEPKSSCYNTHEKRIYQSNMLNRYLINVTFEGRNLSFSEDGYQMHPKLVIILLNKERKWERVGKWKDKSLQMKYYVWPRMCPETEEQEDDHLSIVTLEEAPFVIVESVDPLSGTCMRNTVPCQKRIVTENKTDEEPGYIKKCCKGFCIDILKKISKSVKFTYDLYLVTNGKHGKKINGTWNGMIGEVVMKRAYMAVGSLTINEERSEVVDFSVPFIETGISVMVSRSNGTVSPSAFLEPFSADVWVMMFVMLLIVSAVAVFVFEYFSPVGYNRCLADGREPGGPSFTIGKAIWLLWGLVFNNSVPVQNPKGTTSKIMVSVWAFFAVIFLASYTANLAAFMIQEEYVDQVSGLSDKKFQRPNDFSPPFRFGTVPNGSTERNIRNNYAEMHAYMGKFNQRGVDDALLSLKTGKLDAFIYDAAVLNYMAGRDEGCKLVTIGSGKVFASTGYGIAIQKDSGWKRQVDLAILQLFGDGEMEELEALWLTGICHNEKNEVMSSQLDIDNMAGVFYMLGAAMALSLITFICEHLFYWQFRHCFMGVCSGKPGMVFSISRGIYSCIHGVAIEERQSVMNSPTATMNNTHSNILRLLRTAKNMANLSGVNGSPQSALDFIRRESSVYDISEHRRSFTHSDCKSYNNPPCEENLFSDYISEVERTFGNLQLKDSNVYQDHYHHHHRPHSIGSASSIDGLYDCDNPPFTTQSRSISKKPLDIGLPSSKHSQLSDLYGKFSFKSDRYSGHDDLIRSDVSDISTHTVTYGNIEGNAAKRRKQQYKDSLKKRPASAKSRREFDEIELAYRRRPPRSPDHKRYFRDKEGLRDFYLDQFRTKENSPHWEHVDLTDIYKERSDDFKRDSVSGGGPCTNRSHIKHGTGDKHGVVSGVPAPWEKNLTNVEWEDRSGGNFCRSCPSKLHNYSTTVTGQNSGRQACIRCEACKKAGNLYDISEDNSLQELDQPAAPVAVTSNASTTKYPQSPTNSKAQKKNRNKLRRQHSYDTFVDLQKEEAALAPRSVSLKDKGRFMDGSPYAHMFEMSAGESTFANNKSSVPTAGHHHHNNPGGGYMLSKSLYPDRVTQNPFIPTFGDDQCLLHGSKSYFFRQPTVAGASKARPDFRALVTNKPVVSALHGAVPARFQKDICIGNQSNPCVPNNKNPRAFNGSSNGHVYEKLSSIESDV
T1 sequence (Q60492 whole entry): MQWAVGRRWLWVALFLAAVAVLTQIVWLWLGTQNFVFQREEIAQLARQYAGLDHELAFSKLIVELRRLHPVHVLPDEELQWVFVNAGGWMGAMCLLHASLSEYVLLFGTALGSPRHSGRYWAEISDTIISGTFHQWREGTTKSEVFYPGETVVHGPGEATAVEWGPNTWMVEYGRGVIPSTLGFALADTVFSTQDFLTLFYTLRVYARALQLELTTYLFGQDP
Chain of κ-opioid receptor (P41144 whole entry): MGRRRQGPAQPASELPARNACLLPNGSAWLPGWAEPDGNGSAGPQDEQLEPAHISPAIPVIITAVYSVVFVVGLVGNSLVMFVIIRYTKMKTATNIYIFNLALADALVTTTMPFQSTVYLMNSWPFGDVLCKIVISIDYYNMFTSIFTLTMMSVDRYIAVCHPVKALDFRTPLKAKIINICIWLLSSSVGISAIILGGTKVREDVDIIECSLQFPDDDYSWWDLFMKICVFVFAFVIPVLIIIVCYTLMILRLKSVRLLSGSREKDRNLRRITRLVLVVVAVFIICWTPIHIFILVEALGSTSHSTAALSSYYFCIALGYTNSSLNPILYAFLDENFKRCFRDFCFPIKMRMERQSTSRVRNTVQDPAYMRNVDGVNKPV
Chain of µ-opioid receptor (A0ACM8Q262 1-400): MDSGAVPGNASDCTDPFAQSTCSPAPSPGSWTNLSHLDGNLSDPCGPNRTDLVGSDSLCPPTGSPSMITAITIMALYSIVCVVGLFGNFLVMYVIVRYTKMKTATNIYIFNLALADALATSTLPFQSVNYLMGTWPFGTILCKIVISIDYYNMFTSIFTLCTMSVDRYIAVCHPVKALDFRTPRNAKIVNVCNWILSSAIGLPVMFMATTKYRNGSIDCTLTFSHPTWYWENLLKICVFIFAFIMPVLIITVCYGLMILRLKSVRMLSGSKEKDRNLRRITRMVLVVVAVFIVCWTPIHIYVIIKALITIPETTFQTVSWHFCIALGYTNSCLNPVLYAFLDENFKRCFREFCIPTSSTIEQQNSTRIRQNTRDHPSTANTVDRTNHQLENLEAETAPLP

The Ki is the dissociation constant of the complex between target and ligand, obtained from inhibition or displacement. Regarding `CCC1(c2ccccc2)OCCC(CCCC(NCc2ccccc2)c2ccccc2)O1` (stereo not drawn) [26b, N-Benzyl-4-(trans-2-ethyl-2-phenyl-1,3-dioxan-4-yl)-1-phenylbutan-1-amine], the Ki was 88 ± 43 nM on σ1 receptor [1] (Ki ± SEM σ1), greater than 1000 nM in data set [2], 139 nM on σ2 receptor and 257 ± 57 nM in data set [3] (read-out: Ki ± SEM GluN2B).

On to `c1ccc(CNC(CCC[C@H]2CCO[C@@H](c3ccccc3)O2)c2ccccc2)cc1` (relative stereo) [26a, N-Benzyl-1-phenyl-4-(cis-2-phenyl-1,3-dioxan-4-yl)butan-1-amine], for which the Ki at σ1 receptor [1] (Ki ± SEM σ1) was 918 nM; in data set [2] it was greater than 1000 nM; at σ2 receptor, 907 nM; in data set [3] (read-out: Ki ± SEM GluN2B) it was greater than 1000 nM.

For orientation: IC50 means the concentration needed to halve the response being measured. A low value points to greater potency in that assay. At σ1 receptor [1], `CC[C@]1(c2ccccc2)OCC[C@H](CCCCN)O1` (relative stereo) [14b, 4-(trans-2-Ethyl-2-phenyl-1,3-dioxan-4-yl)butan-1-amine] registered an IC50 greater than 1000 nM. The Ki on σ1 receptor [1] (Ki ± SEM σ1) is greater than 1000 nM; in [2], 731 nM; on σ2 receptor, greater than 1000 nM; in data set [3] (read-out: Ki ± SEM GluN2B), greater than 1000 nM.

What is called logD is lipophilicity at a set pH, counting ionised and neutral species. Low readings indicate a more hydrophilic compound, high ones a more lipophilic compound. For orientation: inhibition means the drop in the measured response relative to a control, in per cent. In the case of `CC[C@]1(c2ccccc2)OCC[C@H](CCCCNCc2ccccc2)O1` (relative stereo) [17b, N-Benzyl-4-(trans-2-ethyl-2-phenyl-1,3-dioxan-4-yl)butan-1-amine], the Ki at σ1 receptor [1] (Ki ± SEM σ1) is 14 ± 6.1 nM; at σ1 receptor [1] (pKi(σ1)), 14.1 nM; in [2], 569 ± 141 nM; at σ2 receptor, 22 ± 1.9 nM; in data set [3], 39 ± 13 nM. For the same compound, in “physchem”, the logD came to 2.65 ± 0.04. Moreover, the “Metabolic Stability (5): amount of the remaining unmetabolized parent compound” value in data set [4] is on record as 50 ± 4%. The inhibition at 1 µM at κ-opioid receptor turned out to be 0%. Moreover, the “LLE (ligand-lipophilicity efficiency)” value at σ1 receptor [5] worked out at 5.20.

With `CC[C@]1(c2ccccc2)OCC[C@H](CCCCN2CCCC2)O1` (relative stereo) [19b, 1-[4-(trans-2-Ethyl-2-phenyl-1,3-dioxan-4-yl)butyl]pyrrolidine], the Ki on σ1 receptor [1] (Ki ± SEM σ1) was 56 ± 19 nM; on σ1 receptor [1] (pKi(σ1)), 56.2 nM; in data set [2], greater than 1000 nM; on σ2 receptor it was 57 ± 1.9 nM; in data set [3] it was 67 ± 18 nM. This compound also gave a logD in the data set “physchem” of 1.29 ± 0.05. In addition, the “Metabolic Stability (5): amount of the remaining unmetabolized parent compound” value in [4] worked out at 62 ± 2%. Besides, the “LLE (ligand-lipophilicity efficiency)” value on σ1 receptor [5] is reported as 5.96.

As for `c1ccc(CNCCCC2CCOC(c3ccccc3)O2)cc1` (centres unmarked) [compound 4], at σ1 receptor [6], the inhibition constant (Ki) is 164 nM.

For the compound `CCC1(c2ccccc2)OCCC(CCCC(c2ccccc2)N2CCCC2)O1` (stereo not drawn) [27b, 1-[4-(trans-2-Ethyl-2-phenyl-1,3-dioxan-4-yl)-1-phenylbutyl]pyrrolidine], the Ki at σ1 receptor [1] (Ki ± SEM σ1) is 19 ± 0.6 nM; on σ1 receptor [1] (pKi(σ1)), 19.1 nM; in data set [2], greater than 1000 nM; on σ2 receptor, 64 ± 15 nM; in data set [3], 63 ± 20 nM. The logD in the data set “physchem” was determined as 3.33 ± 0.08. The “Metabolic Stability (5): amount of the remaining unmetabolized parent compound” value in data set [4] came out at 55 ± 5%. In addition, the “LLE (ligand-lipophilicity efficiency)” value at σ1 receptor [5] was determined as 4.39.

On to `CC[C@]1(c2ccccc2)OCC[C@H](CCCCNC)O1` (relative stereo) [16b, 4-(trans-2-Ethyl-2-phenyl-1,3-dioxan-4-yl)-N-methylbutan-1-amine], for which the Ki at σ1 receptor [1] (Ki ± SEM σ1) was 107 ± 5 nM; in data set [2], greater than 1000 nM; at σ2 receptor it was 311 nM; in data set [3] (read-out: Ki ± SEM GluN2B), greater than 1000 nM.

For `c1ccc(CNCCCC[C@H]2CCO[C@@H](c3ccccc3)O2)cc1` (relative stereo) [17a, N-Benzyl-4-(cis-2-phenyl-1,3-dioxan-4-yl)butan-1-amine], the inhibition at 1 µM at µ-opioid receptor came out at 3%; at κ-opioid receptor, 0%. Besides, the Ki at σ1 receptor [1] (Ki ± SEM σ1) was 31 ± 4 nM; on σ1 receptor [1] (pKi(σ1)), 30.9 nM; in [2] it was greater than 1000 nM; on σ2 receptor it was 213 nM; in [3] (read-out: Ki ± SEM GluN2B), greater than 1000 nM. Besides, the logD in the data set “physchem” stood at 1.32 ± 0.04. For the same compound, the “Metabolic Stability (5): amount of the remaining unmetabolized parent compound” value in [4] was 56% and 56 ± 3%. Besides, on σ1 receptor [5], the “LLE (ligand-lipophilicity efficiency)” value is on record as 6.19. The “selectivity for the σ1 receptor against the ifenprodil binding site” value at σ1 receptor [5] is recorded as greater than 30 fold. In addition, the “selectivity for the σ1 receptor over δ-opioid receptors” value at σ1 receptor [5] (σ1 over δ-opioid receptor) came out at 9 fold. In addition, the “σ1:σ2 receptor selectivity” value at σ1 receptor [5] (σ1 over σ2) is “approx. 7 fold”.

Regarding `NC(CCC[C@H]1CCO[C@@H](c2ccccc2)O1)c1ccccc1` (relative stereo) [24a, 1-Phenyl-4-(cis-2-phenyl-1,3-dioxan-4-yl)butan-1-amine], the values for the Ki (on σ1 receptor [1] (Ki ± SEM σ1); in [2]; in data set [3] (read-out: Ki ± SEM GluN2B)) were greater than 1000 nM, greater than 1000 nM and 1350 nM, respectively.

With `CNCCCC[C@H]1CCO[C@@H](c2ccccc2)O1` (relative stereo) [16a, N-Methyl-4-(cis-2-phenyl-1,3-dioxan-4-yl)butan-1-amine], the Ki is 842 nM on σ1 receptor [1] (Ki ± SEM σ1), greater than 1000 nM in data set [2], greater than 1000 nM at σ2 receptor and greater than 1000 nM in data set [3] (read-out: Ki ± SEM GluN2B).

As for `c1ccc(C(CCC[C@H]2CCO[C@@H](c3ccccc3)O2)N2CCCC2)cc1` (relative stereo) [27a, 1-[1-Phenyl-4-(cis-2-phenyl-1,3-dioxan-4-yl)butyl]pyrrolidine], the Ki at σ1 receptor [1] (Ki ± SEM σ1) was 161 ± 59 nM; on σ1 receptor [1] (pKi(σ1)), 162 nM; in [2], greater than 1000 nM; at σ2 receptor, greater than 1000 nM; in data set [3] (read-out: Ki ± SEM GluN2B), 366 nM. Further, in the data set “physchem”, the logD came out at 2.2 ± 0.07. For the same compound, the “Metabolic Stability (5): amount of the remaining unmetabolized parent compound” value in data set [4] is 76% and 76 ± 3%. In addition, the “LLE (ligand-lipophilicity efficiency)” value on σ1 receptor [5] is 4.59.

With `CNC(CCC[C@H]1CCO[C@@H](c2ccccc2)O1)c1ccccc1` (relative stereo) [25a, N-Methyl-1-phenyl-4-(cis-2-phenyl-1,3-dioxan-4-yl)butan-1-amine], the Ki is 144 ± 26 nM at σ1 receptor [1] (Ki ± SEM σ1), greater than 1000 nM in [2], greater than 1000 nM on σ2 receptor and 716 nM in data set [3] (read-out: Ki ± SEM GluN2B).

As for `c1ccc(CNCCC2CCCC(c3ccccc3)O2)cc1` (centres unmarked) [compound 3], the inhibition constant (Ki) at σ1 receptor [6] was 6.4 nM.

With `CCC1(c2ccccc2)OCCC(CCNCc2ccccc2)O1` (centres unmarked) [2b], the Ki at σ1 receptor [6] was 27 nM.

At σ1 receptor [1], `NCCCC[C@H]1CCO[C@@H](c2ccccc2)O1` (relative stereo) [14a, 4-(cis-2-Phenyl-1,3-dioxan-4-yl)butan-1-amine] gave an IC50 greater than 1000 nM. Besides, the Ki (on σ1 receptor [1] (Ki ± SEM σ1); in data set [2]; on σ2 receptor; in data set [3] (read-out: Ki ± SEM GluN2B)) was greater than 1000 nM throughout.

`CCC1(c2ccccc2)OCCC(CCCC(N)c2ccccc2)O1` (stereo not drawn) [24b, 4-(trans-2-Ethyl-2-phenyl-1,3-dioxan-4-yl)-1-phenylbutan-1-amine]: the Ki on σ1 receptor [1] (Ki ± SEM σ1) was determined as 427 nM; in [2], 524 nM; at σ2 receptor it was 170 nM; in [3] (read-out: Ki ± SEM GluN2B), 136 ± 36 nM.

On to `CCC1(c2ccccc2)OCCC(CCCC(NC)c2ccccc2)O1` (stereo not drawn) [25b, 4-(trans-2-Ethyl-2-phenyl-1,3-dioxan-4-yl)-N-methyl-1-phenylbutan-1-amine], for which the Ki was 58 ± 8.2 nM on σ1 receptor [1] (Ki ± SEM σ1), greater than 1000 nM in [2], 255 nM at σ2 receptor and 190 ± 39 nM in data set [3] (read-out: Ki ± SEM GluN2B).

For the compound `c1ccc([C@@H]2OCC[C@H](CCCCN3CCCC3)O2)cc1` (relative stereo) [19a, 1-[4-(cis-2-Phenyl-1,3-dioxan-4-yl)butyl]pyrrolidine], the Ki on σ1 receptor [1] (Ki ± SEM σ1) was 154 ± 8 nM; at σ1 receptor [1] (pKi(σ1)) it was 155 nM; in data set [2], greater than 1000 nM; at σ2 receptor, greater than 1000 nM; in data set [3] (read-out: Ki ± SEM GluN2B) it was greater than 1000 nM. For the same compound, in “physchem”, the logD stood at 0.09 ± 0.05. In data set [4], the “Metabolic Stability (5): amount of the remaining unmetabolized parent compound” value was 55% and 55 ± 2%. Moreover, the “LLE (ligand-lipophilicity efficiency)” value at σ1 receptor [5] was 6.72.

These data come from publication PMC12865480 (Pharmaceuticals, 2025).
